Data from patent US20220389007A1, “INHIBITORS OF HUMAN IMMUNODEFICIENCY VIRUS REPLICATION” (VIIV HEALTHCARE UK (No. 5) LIMITED, priority 2019, published 2022).
Like-named read-outs stand apart in the source and are kept apart here.

Assays:
Assay type in all cases: cell-based
uninfected MT2 cells = assay: Compound cytotoxicity, XTT-based colorimetric assay; conditions: day 4, XTT assay
In short: (§1)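 Run under the antiviral-assay protocol but without virus. Viability was read on day 4 and CC50 values were derived from the readout.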

recombinant NL4-3 virus = assay: HIV cell culture assay (antiviral activity, luciferase readout)
In short: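 MT-2 cells infected for 4-5 days with NL4-3 reference virus carrying Renilla luciferase in place of part of nef, in presence of serial compound dilutions. Luciferase read with live-cell substrate; EC50 from median effect equation fit.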

[1] = Compound cytotoxicity, XTT-based colorimetric assay; conditions: human; uninfected MT2 cells, day 4, XTT assay
In short: as §1

[2] = Human immunodeficiency virus 1, NL43, MT2, MT-2 cells infected for 4-5 days with recombinant NL4-3 virus carrying Renilla luciferase

Cn1nc(NS(C)(=O)=O)c2c(Cl)ccc(-n3c([C@H](Cc4cc(F)cc(F)c4)NC(=O)Cn4nc(C(F)F)c5c4C(F)(F)[C@@H]4C[C@H]54)nc4nc(-c5cc(C(F)(F)F)nn5CC(C)(F)F)ccc4c3=O)c21 [Example 95, N-((S)-1-((3P)-3-(4-chloro-1-methyl-3-(methylsulfonamido)-1H-indazol-7-yl)-7-(1-(2,2-difluoropropyl)-3-(trifluoromethyl)-1H-pyrazol-5-yl)-4-oxo-3,4-dihydropyrido[2,3-d]pyrimidin-2-yl)-2-(3,5-difluorophenyl)ethyl)-2-((3bS,4aR)-3-(difluoromethyl)-5,5-difluoro-3b,4,4a,5-tetrahydro-1H-cyclopropa[3,4]cyclopenta[1,2-c]pyrazol-1-yl)acetamide]
CC50 (uninfected MT2 cells): > 100 nM
EC50 (recombinant NL4-3 virus; MT-2 cells infected for 4-5 days with recombinant NL4-3 virus carrying Renilla luciferase, read-out: EC50): 0.25 nM

Cn1nc(NS(C)(=O)=O)c2c(Cl)ccc(-n3c([C@H](Cc4cc(F)cc(F)c4)NC(=O)Cn4nc(C(F)F)c5c4C(F)(F)[C@@H]4C[C@H]54)nc4nc(-c5cnn(CCF)c5)ccc4c3=O)c21 (atropisomer, axis not shown; (P)) [Example 76, N-((S)-1-((3P)-3-(4-chloro-1-methyl-3-(methylsulfonamido)-1H-indazol-7-yl)-7-(1-(2-fluoroethyl)-1H-pyrazol-4-yl)-4-oxo-3,4-dihydropyrido[2,3-d]pyrimidin-2-yl)-2-(3,5-difluorophenyl)ethyl)-2-((3bS,4aR)-3-(difluoromethyl)-5,5-difluoro-3b,4,4a,5-tetrahydro-1H-cyclopropa[3,4]cyclopenta[1,2-c]pyrazol-1-yl)acetamide]
CC50 at 4 day [1]: > 100 nM
EC50 (recombinant NL4-3 virus; [2]): 0.11 nM

Cn1nc(NS(C)(=O)=O)c2c(Cl)ccc(-n3c([C@H](Cc4cc(F)cc(F)c4)NC(=O)Cn4nc(C(F)F)c5c4C(F)(F)[C@@H]4C[C@H]54)nc4nc(-c5nccc(C(F)(F)F)n5)ccc4c3=O)c21 (atropisomer, axis not shown; (P)) [Example 5, N-((S)-1-((3P)-3-(4-chloro-1-methyl-3-(methylsulfonamido)-1H-indazol-7-yl)-4-oxo-7-(4-(trifluoromethyl)pyrimidin-2-yl)-3,4-dihydropyrido[2,3-d]pyrimidin-2-yl)-2-(3,5-difluorophenyl)ethyl)-2-((3bS,4aR)-3-(difluoromethyl)-5,5-difluoro-3b,4,4a,5-tetrahydro-1H-cyclopropa[3,4]cyclopenta[1,2-c]pyrazol-1-yl)acetamide]
CC50 at 4 day [1]: > 100 nM
EC50 (recombinant NL4-3 virus; [2]): 0.021 nM

Cn1nc(NS(C)(=O)=O)c2c(Cl)ccc(-n3c([C@H](Cc4cc(F)cc(F)c4)NC(=O)Cn4nc(C(F)F)c5c4C(F)(F)[C@@H]4C[C@H]54)nc4nc(-c5ccc(F)cc5C(F)(F)F)ccc4c3=O)c21 (atropisomer, axis not shown; (P)) [Example 22, N-((S)-1-((3P)-3-(4-chloro-1-methyl-3-(methylsulfonamido)-1H-indazol-7-yl)-7-(4-fluoro-2-(trifluoromethyl)phenyl)-4-oxo-3,4-dihydropyrido[2,3-d]pyrimidin-2-yl)-2-(3,5-difluorophenyl)ethyl)-2-((3bS,4aR)-3-(difluoromethyl)-5,5-difluoro-3b,4,4a,5-tetrahydro-1H-cyclopropa[3,4]cyclopenta[1,2-c]pyrazol-1-yl)acetamide]
CC50 at 4 day [1]: > 100 nM
EC50 (recombinant NL4-3 virus; [2]): 0.052 nM

Cc1cc(-c2ccc3c(=O)n(-c4ccc(Cl)c5c(NS(C)(=O)=O)nn(C)c45)c([C@H](Cc4cc(F)cc(F)c4)NC(=O)Cn4nc(C(F)F)c5c4C(F)(F)[C@@H]4C[C@H]54)nc3n2)ccn1 (atropisomer, axis not shown; (P)) [Example 48, N-((S)-1-((3P)-3-(4-chloro-1-methyl-3-(methylsulfonamido)-1H-indazol-7-yl)-7-(2-methylpyridin-4-yl)-4-oxo-3,4-dihydropyrido[2,3-d]pyrimidin-2-yl)-2-(3,5-difluorophenyl)ethyl)-2-((3bS,4aR)-3-(difluoromethyl)-5,5-difluoro-3b,4,4a,5-tetrahydro-1H-cyclopropa[3,4]cyclopenta[1,2-c]pyrazol-1-yl)acetamide]
CC50 at 4 day [1]: > 100 nM
EC50 (recombinant NL4-3 virus; [2]): 0.053 nM

Cn1nc(NS(C)(=O)=O)c2c(Cl)ccc(-n3c([C@H](Cc4cc(F)cc(F)c4)NC(=O)Cn4nc(C(F)F)c5c4C(F)(F)[C@@H]4C[C@H]54)nc4nc(-c5cc(C(F)(F)F)ncn5)ccc4c3=O)c21 (atropisomer, axis not shown; (P)) [Example 15, N-((S)-1-((3P)-3-(4-chloro-1-methyl-3-(methylsulfonamido)-1H-indazol-7-yl)-4-oxo-7-(6-(trifluoromethyl)pyrimidin-4-yl)-3,4-dihydropyrido[2,3-d]pyrimidin-2-yl)-2-(3,5-difluorophenyl)ethyl)-2-((3bS,4aR)-3-(difluoromethyl)-5,5-difluoro-3b,4,4a,5-tetrahydro-1H-cyclopropa[3,4]cyclopenta[1,2-c]pyrazol-1-yl)acetamide]
CC50 at 4 day [1]: > 100 nM
EC50 (recombinant NL4-3 virus; [2]): 0.025 nM

Cn1nc(NS(C)(=O)=O)c2c(Cl)ccc(-n3c([C@H](Cc4cc(F)cc(F)c4)NC(=O)Cn4nc(C(F)F)c5c4C(F)(F)[C@@H]4C[C@H]54)nc4nc(-n5cc(C(F)(F)F)cn5)ccc4c3=O)c21 (atropisomer, axis not shown; (P)) [Example 66, N-((S)-1-((3P)-3-(4-chloro-1-methyl-3-(methylsulfonamido)-1H-indazol-7-yl)-4-oxo-7-(4-(trifluoromethyl)-1H-pyrazol-1-yl)-3,4-dihydropyrido[2,3-d]pyrimidin-2-yl)-2-(3,5-difluorophenyl)ethyl)-2-((3bS,4aR)-3-(difluoromethyl)-5,5-difluoro-3b,4,4a,5-tetrahydro-1H-cyclopropa[3,4]cyclopenta[1,2-c]pyrazol-1-yl)acetamide]
CC50 at 4 day [1]: > 100 nM
EC50 (recombinant NL4-3 virus; [2]): 0.07 nM

Cn1nc(NS(C)(=O)=O)c2c(Cl)ccc(-n3c([C@H](Cc4cc(F)cc(F)c4)NC(=O)Cn4nc(C(F)F)c5c4C(F)(F)[C@@H]4C[C@H]54)nc4nc(-n5ccnc5)ccc4c3=O)c21 (atropisomer, axis not shown; (P)) [Example 64, N-((S)-1-((3P)-3-(4-chloro-1-methyl-3-(methylsulfonamido)-1H-indazol-7-yl)-7-(1H-imidazol-1-yl)-4-oxo-3,4-dihydropyrido[2,3-d]pyrimidin-2-yl)-2-(3,5-difluorophenyl)ethyl)-2-((3bS,4aR)-3-(difluoromethyl)-5,5-difluoro-3b,4,4a,5-tetrahydro-1H-cyclopropa[3,4]cyclopenta[1,2-c]pyrazol-1-yl)acetamide]
CC50 at 4 day [1]: > 100 nM
EC50 (recombinant NL4-3 virus; [2]): 0.53 nM

Cn1nc(NS(C)(=O)=O)c2c(Cl)ccc(-n3c([C@H](Cc4cc(F)cc(F)c4)NC(=O)Cn4nc(C(F)F)c5c4C(F)(F)[C@@H]4C[C@H]54)nc4nc(-c5ccc(S(C)(=O)=O)cc5)ccc4c3=O)c21 (atropisomer, axis not shown; (P)) [Example 35, N-((S)-1-((3P)-3-(4-chloro-1-methyl-3-(methylsulfonamido)-1H-indazol-7-yl)-7-(4-(methylsuIfonyl)phenyl)-4-oxo-3,4-dihydropyrido[2,3-d]pyrimidin-2-yl)-2-(3,5-difluorophenyl)ethyl)-2-((3bS,4aR)-3-(difluoromethyl)-5,5-difluoro-3b,4,4a,5-tetrahydro-1H-cyclopropa[3,4]cyclopenta[1,2-c]pyrazol-1-yl)acetamide]
CC50 at 4 day [1]: > 100 nM
EC50 (recombinant NL4-3 virus; [2]): 0.14 nM
